biological target: T1, Pin1 (Homo sapiens, UniProt Q13526); experiment: Evaluation of Pin1 enzyme inhibitory activity (Sensolyte Green Pin1 assay kit); format: biochemical; conditions: concentration at which the Pin1 enzyme activity is inhibited; 2 hours at room temperature, fluorescence 490 nm/520 nm; read-out: Pin 1 inhibition
T1 construct: purchased Anaspec
Protocol: In order to evaluate the Pin1 enzyme inhibitory activity of the compound represented by formula 1 according to the present invention, the following experiment was performed, and the results are shown in Table 2 below.
The enzyme activity of Pin1 protein was measured using a sensolyte Green Pin1 assay kit of Anaspec. The substrate was diluted in a buffer at a ratio of 1:100 to prepare a concentration of 1 μM, and the protein was diluted in a buffer at a ratio of 1:20 to prepare a concentration of 50 μg/ml. In addition, a developing solution was prepared by diluting thereof in a buffer at a ratio of 1:100.
The compound prepared in each example was diluted with DMSO and prepared at a concentration of 100 μM, 10 μM, 1 μM or 0.1 μM using a buffer. After sequentially adding 10 μl of the compound prepared in each Example diluted to four concentrations according to the above method, 10 μl of Pin1 protein, and 30 μl of the developing solution to each well of a black 96-well plate, […]. Finally, 50 μl of the substrate was added to each well of the plate, and the enzyme reaction was carried out after shaking the plate for 10 seconds.
Then, the plate was incubated for 2 hours at room temperature in an environment without light, and the fluorescence values at 490 nm/520 nm wavelength were measured using a device of Synergy Neo […]. The results are shown in Table 2 below by dividing the grades of A to D for each concentration (μM) at which the Pin1 enzyme activity is inhibited.

T1 sequence (Q13526 whole entry): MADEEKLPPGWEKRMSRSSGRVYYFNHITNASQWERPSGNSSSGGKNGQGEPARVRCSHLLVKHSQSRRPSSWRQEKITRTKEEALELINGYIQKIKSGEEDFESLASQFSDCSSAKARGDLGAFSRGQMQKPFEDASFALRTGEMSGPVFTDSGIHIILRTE

CCCCOc1ccc(S(=O)(=O)NCCCc2ccc(-c3ccccc3)cc2)cc1 [Example 1, N-(3-([1,1′-biphenyl]-4-yl)propyl)-4-butoxybenzenesulfonamide] and CCCCOc1ccc(S(=O)(=O)NCCCc2ccc(Cl)cc2)cc1 [Example 3, 4-butoxy-N-(3-(4-chlorophenyl)propyl)benzenesulfonamide] cannot be ordered by IC50: > 100 µM for the first, > 100 µM for the second.

CCCCOc1ccc(S(=O)(=O)NCCCN2CCN(C(C)C)CC2)cc1 [Example 2, 4-butoxy-N-(3-(4-isopropylpiperazin-1-yl)propyl)benzenesulfonamide] and CCCCOc1ccc(S(=O)(=O)NCCCN2CCOCC2)cc1 [Example 6, 4-butoxy-N-(3-morpholinopropyl)benzenesulfonamide] cannot be ordered by IC50: > 100 µM for the first, > 100 µM for the second.

CCCCOc1ccc(S(=O)(=O)NCCCC2CCCCC2)cc1 [Example 4, 4-butoxy-N-(3-cyclohexylpropyl)benzenesulfonamide] and CCCCOc1ccc(S(=O)(=O)NCCCN2CCCC2=O)cc1 [Example 13, 4-butoxy-N-(3-(2-oxopyrrolidin-1-yl)propyl)benzenesulfonamide] cannot be ordered by IC50: > 100 µM for the first, > 100 µM for the second.

CCCCOc1ccc(S(=O)(=O)NCCCc2cccnc2)cc1 [Example 5, 4-butoxy-N-(3-(pyridin-3-yl)propyl)benzensulfonamide] and CCCCOc1ccc(S(=O)(=O)NCCCc2nc3ccccc3[nH]2)cc1 [Example 28, N-(3-(1H-benzo[d]imidazol-2-yl)propyl)-4-butoxybenzenesulfonamide] cannot be ordered by IC50: > 100 µM for the first, > 100 µM for the second.

CCCCOc1ccc(S(=O)(=O)NCCc2ccc(N3CCOCC3)cc2)cc1 [Example 7, 4-butoxy-N-(4-morpholinophenethyl)benzenesulfonamide] and CCCCOc1ccc(S(=O)(=O)NCCc2ccc(C(=O)O)cc2)cc1 [Example 8, 4-(2-(4-butoxyphenylsulfonamido)ethyl)benzoic acid] cannot be ordered by IC50: > 100 µM for the first, > 100 µM for the second.

CCCCOc1ccc(S(=O)(=O)NCCc2ccc(C(=O)OC)cc2)cc1 [Example 9, methyl 4-(2-(4-butoxyphenylsulfonamido)ethyl)benzoate] and COC(=O)c1ccc(CCNS(=O)(=O)c2ccc(OCCCN(C)C)cc2)cc1 [Example 16, methyl 4-(2-(4-(3-(dimethylamino)propoxy)phenylsulfonamido)ethyl)benzoate] cannot be ordered by IC50: > 100 µM for the first, > 100 µM for the second.

Compared with CCCCOc1ccc(S(=O)(=O)NCCN2CCC(Cc3ccccc3)CC2)cc1 [Example 10, N-(2-(4-benzylpiperidin-1-yl)ethyl)-4-butoxybenzenesulfonamide], CCCCOc1ccc(S(=O)(=O)NCCC(O)c2ccccc2)cc1 (stereo not shown) [Example 11, 4-butoxy-N-(3-hydroxy-3-phenylpropyl)benzenesulfonamide] is lower in IC50: > 100 µM for the first, 10 to 100 µM for the second.

First: CCCCOc1ccc(S(=O)(=O)NCCC(=O)c2ccccc2)cc1 [Example 12, 4-butoxy-N-(3-oxo-3-phenylpropyl)benzenesulfonamide]
Second: CCCCOc1ccc(S(=O)(=O)NCCc2cc3ccccc3[nH]2)cc1 [Example 25, N-(2-(1H-indol-2-yl)ethyl)-4-butoxybenzenesulfonamide]
The IC50 of the first is lower: 10 to 100 µM for the first, > 100 µM for the second.

CN(C)CCCOc1ccc(S(=O)(=O)NCCc2ccccc2)cc1 [Example 14, 4-(3-(dimethylamino)propoxy)-N-phenethylbenzenesulfonamide] and CN(C)CCCOc1ccc(S(=O)(=O)NCCCc2ccccc2)cc1 [Example 15, 4-(3-(dimethylamino)propoxy)-N-(3-phenylpropyl)benzenesulfonamide] cannot be ordered by IC50: > 100 µM for the first, > 100 µM for the second.

CN(C)CCCOc1ccc(S(=O)(=O)NCCc2ccc(C(=O)O)cc2)cc1 [Example 17, 4-(2-(4-(3-(dimethylamino)propoxy)phenylsulfonamido)ethyl)benzoic acid] and CN(C)CCCOc1ccc(S(=O)(=O)NCCc2nc3ccccc3[nH]2)cc1 [Example 37, N-(2-(1H-benzo[d]imidazol-2-yl)ethyl)-4-(3-(dimethylamino)propoxy)benzenesulfonamide] cannot be ordered by IC50: > 100 µM for the first, > 100 µM for the second.

CN(C)CCCOc1ccc(S(=O)(=O)NCCCN2CCCC2=O)cc1 [Example 18, 4-(3-(dimethylamino)propoxy)-N-(3-(2-oxopyrrolidin-1-yl)propyl)benzenesulfonamide] and CN(C)CCCOc1ccc(S(=O)(=O)NCCCn2ccc3ccccc32)cc1 [Example 39, N-(3-(1H-indol-1-yl)propyl)-4-(3-(dimethylamino)propoxy)benzenesulfonamide] cannot be ordered by IC50: > 100 µM for the first, > 100 µM for the second.

Compared with CCCCOc1ccc(S(=O)(=O)NCCCc2cccc3ccccc23)cc1 [Example 19, 4-butoxy-N-(3-(naphthalen-1-yl)propyl)benzenesulfonamide], CCCCOc1ccc(S(=O)(=O)NCCCc2c[nH]c3ccccc23)cc1 [Example 20, N-(3-(1H-indol-3-yl)propyl)-4-butoxybenzenesulfonamide] is lower in IC50: > 100 µM for the first, 10 to 100 µM for the second. The second is the more potent here.

CN(C)CCOc1ccc(S(=O)(=O)NCCCc2c[nH]c3ccccc23)cc1 [Example 21, N-(3-(1H-indol-3-yl)propyl)-4-(2-(dimethylamino)ethoxy)benzenesulfonamide] and CC(C)CCOc1ccc(S(=O)(=O)NCCCc2c[nH]c3ccccc23)cc1 [Example 26, N-(3-(1H-indol-3-yl)propyl)-4-(isopentyloxy)benzenesulfonamide] fall in the same range of IC50: 10 to 100 µM for the first, 10 to 100 µM for the second.

CCCCOc1ccc(S(=O)(=O)NCCc2nc3ccccc3[nH]2)cc1 [Example 23] and CCCCOc1ccc(S(=O)(=O)NCCc2c[nH]c3ccccc23)cc1 [Example 24, N-(2-(1H-indol-3-yl)ethyl)-4-butoxybenzenesulfonamide] cannot be ordered by IC50: > 100 µM for the first, > 100 µM for the second.

Compared with CCCCCOc1ccc(S(=O)(=O)NCCCc2c[nH]c3ccccc23)cc1 [Example 27, N-(3-(1H-indol-3-yl)propyl)-4-(pentyloxy)benzenesulfonamide], O=S(=O)(NCCCc1c[nH]c2ccccc12)c1ccc(OCCCN2CCOCC2)cc1 [Example 30, N-(3-(1H-indol-3-yl)propyl)-4-(3-morpholinopropoxy)benzenesulfonamide] is higher in IC50: 10 to 100 µM for the first, > 100 µM for the second. The first is the more potent here.

Compared with CCCCOc1ccc(S(=O)(=O)NCCc2c[nH]c3ccc(O)cc23)cc1 [Example 29, 4-butoxy-N-(2-(5-hydroxy-1H-indol-3-yl)ethyl)benzenesulfonamide], COc1ccc2[nH]cc(CCNS(=O)(=O)c3ccc(OCCCN4CCN(C)CC4)cc3)c2c1 [Example 49, N-(2-(5-methoxy-1H-indol-3-yl)ethyl)-4-(3-(4-methylpiperazin-1-yl)propoxy)benzenesulfonamide] is lower in IC50: > 100 µM for the first, 10 to 100 µM for the second. The second is the more potent here.

CCCCOc1ccc(S(=O)(=O)NCCCn2ccc3ccccc32)cc1 [Example 32, N-(3-(1H-indol-1-yl)propyl)-4-butoxybenzenesulfonamide] and CCCCOc1ccc(S(=O)(=O)NCCCn2cnc3ccccc32)cc1 [Example 33, N-(3-(1H-benzo[d]imidazol-1-yl)propyl)-4-butoxybenzenesulfonamide] cannot be ordered by IC50: > 100 µM for the first, > 100 µM for the second.

CN(C)CCCOc1ccc(S(=O)(=O)NCCc2cc3ccccc3[nH]2)cc1 [Example 38, N-(2-(1H-indol-2-yl)ethyl)-4-(3-(dimethylamino)propoxy)benzenesulfonamide] and CN(C)CCCOc1ccc(S(=O)(=O)NCCCc2cn(C)c3ccccc23)cc1 [Example 46, 4-(3-(dimethylamino)propoxy)-N-(3-(1-methyl-1H-indole-3-yl)propyl)benzenesulfonamide] cannot be ordered by IC50: > 100 µM for the first, > 100 µM for the second.

CN(C)CCCOc1ccc(S(=O)(=O)NCCCn2cnc3ccccc32)cc1 [Example 40, N-(3-(1H-benzo[d]imidazol-1-yl)propyl)-4-(3-(dimethylamino)propoxy)benzenesulfonamide] and CN1CCN(CCCOc2ccc(S(=O)(=O)NCCCn3cnc4ccccc43)cc2)CC1 [Example 42, N-(3-(1H-benzo[d]imidazol-1-yl)propyl)-4-(3-(4-methylpiperazin-1-yl)propoxy)benzenesulfonamide] cannot be ordered by IC50: > 100 µM for the first, > 100 µM for the second.

First: CN1CCN(CCCOc2ccc(S(=O)(=O)NCCCn3ccc4ccccc43)cc2)CC1 [Example 41, N-(3-(1H-indol-1-yl)propyl)-4-(3-(4-methylpiperazin-1-yl)propoxy)benzenesulfonamide]
Second: CN1CCN(CCCOc2ccc(S(=O)(=O)NCCc3c[nH]c4ccccc34)cc2)CC1 [Example 50, N-(2-(1H-indol-3-yl)ethyl)-4-(3-(4-methylpiperazin-1-yl)propoxy)benzenesulfonamide]
The IC50 of the first is higher: > 100 µM for the first, 10 to 100 µM for the second.

O=S(=O)(NCCCc1c[nH]c2ccccc12)c1ccc(OCCCN2CCCCC2)cc1 [Example 43, N-(3-(1H-indol-3-yl)propyl)-4-(3-(piperidin-1-yl)propoxy)benzenesulfonamide] and CC(C)N1CCN(CCCOc2ccc(S(=O)(=O)NCCCc3c[nH]c4ccccc34)cc2)CC1 [Example 48, N-(3-(1H-indol-3-yl)propyl)-4-(3-(4-isopropylpiperazin-1-yl)propoxy)benzenesulfonamide] fall in the same range of IC50: 10 to 100 µM for the first, 10 to 100 µM for the second.

In the case of O=S(=O)(NCCCc1c[nH]c2ccccc12)c1ccc(Br)cc1 [Example 47, N-(3-(1H-indole-3-yl)propyl)-4-bromobenzenesulfonamide], the IC50 is reported as > 100 µM.
